The record followed here is PubChem BioAssay (NCI).

Test systems include CCRF-CEM leukemia; PC-3 prostate; SW-620 colon; SF-295 CNS; UACC-62 melanoma; NCI-H522 lung; RPMI-8226 leukemia; SN12C renal; SK-OV-3 ovarian; NCI/ADR-RES ovarian.
Common to all, as to test: DTP human tumour cell line panel, 48 h

As a reminder, the GI50 is the concentration that inhibits growth by half. In general, TGI refers to the concentration giving total growth inhibition. Low readings indicate greater sensitivity of the cells, high ones lower sensitivity of the cells.

Values joined by “and” are separate entries in the source; they are usually repeats but may differ in a detail not shown here. Equal values may be shown once.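 Five concentrations, 48 hours, 96-well plates. The concentration for 50% growth inhibition is given as GI50. TGI denotes the concentration required for complete inhibition of growth.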

Take `NC(N)=N/N=C/c1cccc(Cl)c1Cl`: the GI50 is 7.26 µM in the assay with CCRF-CEM leukemia; 10800 nM in the assay on PC-3 prostate; 2.25 µM in the assay on SW-620 colon; 2.83 µM in the assay with SF-295 CNS; 1.85 µM with UACC-62 melanoma; 3160 nM in the assay on NCI-H522 lung. Also, the GI50 in the assay on RPMI-8226 leukemia was 3.39 µM; with SN12C renal, 3.92 µM; in the assay on SK-OV-3 ovarian, 7060 nM; in the assay on NCI/ADR-RES ovarian, 8.38 µM. In addition, the TGI amounted to 29.2 µM in the assay on CCRF-CEM leukemia; 23.6 µM in the assay with PC-3 prostate; 5.89 µM with SW-620 colon; 10.3 µM with SF-295 CNS; 4.96 µM with UACC-62 melanoma; 13.6 µM in the assay with NCI-H522 lung. Moreover, the total growth inhibition concentration (TGI) in the assay with RPMI-8226 leukemia was 15.1 µM; with SN12C renal, 16.3 µM; with SK-OV-3 ovarian it was 20 µM; in the assay with NCI/ADR-RES ovarian, 24 µM.

For `COc1ccc(NC(=O)c2sc3nc(C)c(C(O)c4ccc(OC)cc4)cc3c2N)cc1` (stereo not drawn), the GI50 was 1.44 µM in the assay with CCRF-CEM leukemia; 1890 nM in the assay on PC-3 prostate; 1.26 µM in the assay on SW-620 colon; 0.299 µM in the assay with SF-295 CNS; 0.621 µM with UACC-62 melanoma; 1270 nM in the assay on NCI-H522 lung. Besides, the GI50 in the assay on RPMI-8226 leukemia is 1.62 µM; in the assay on SN12C renal it was 2.25 µM; with SK-OV-3 ovarian it was 1890 nM; in the assay on NCI/ADR-RES ovarian, 1.28 µM. The TGI in the assay with CCRF-CEM leukemia was above 50 µM; with PC-3 prostate, above 50 µM; with SW-620 colon, above 50 µM; in the assay on SF-295 CNS it was 9.79 µM; in the assay on UACC-62 melanoma, above 50 µM; with NCI-H522 lung it was above 50 µM. In addition, the TGI with RPMI-8226 leukemia is above 50 µM; in the assay with SN12C renal it was above 50 µM; in the assay on SK-OV-3 ovarian, above 50 µM; with NCI/ADR-RES ovarian, 4.41 µM.

Turning to `O=[N+]([O-])c1cc(Cl)cc2c1nc(NCCO)c1ccccc12`, the TGI in the assay on CCRF-CEM leukemia was above 100 µM; in the assay on PC-3 prostate it was above 70.4 µM; with SW-620 colon, above 100 µM; in the assay with SF-295 CNS it was above 100 µM; in the assay with UACC-62 melanoma, above 60 µM; in the assay with NCI-H522 lung it was 62.9 µM. Besides, the concentration for total growth inhibition (TGI) in the assay with RPMI-8226 leukemia, with SN12C renal, in the assay with SK-OV-3 ovarian and in the assay with NCI/ADR-RES ovarian was above 100 µM throughout.

In the case of `c1ccc2cc(OCC3CO3)c(OCC3CO3)cc2c1` (stereo not drawn), the TGI was 1.48 µM with CCRF-CEM leukemia; 32.1 µM with PC-3 prostate; 13.9 µM in the assay with SW-620 colon; 8.59 µM with SF-295 CNS; 17.6 µM in the assay with UACC-62 melanoma; 5.79 µM in the assay with NCI-H522 lung. Further, the concentration for total growth inhibition (TGI) in the assay with RPMI-8226 leukemia came out at 9.8 µM; in the assay on SN12C renal, 15 µM; with SK-OV-3 ovarian, 22.3 µM; in the assay with NCI/ADR-RES ovarian, 27.3 µM.

`BrC(Br)(Br)c1cnc2ccccc2n1`: the GI50 in the assay on CCRF-CEM leukemia is 0.49 µM; in the assay on PC-3 prostate, 2440 nM; in the assay on SF-295 CNS it was 3.75 µM; in the assay with UACC-62 melanoma it was 2.02 µM; in the assay with NCI-H522 lung, 544 nM; in the assay on RPMI-8226 leukemia it was 2.18 µM. The GI50 with SN12C renal is 3.71 µM; with SK-OV-3 ovarian it was 3380 nM; in the assay on NCI/ADR-RES ovarian, 2.3 µM. Further, the concentration for total growth inhibition (TGI) was determined as 2.42 µM with CCRF-CEM leukemia; 9.89 µM in the assay on PC-3 prostate; 15.4 µM in the assay with SF-295 CNS; 6.6 µM in the assay with UACC-62 melanoma; 1.28 µM in the assay with NCI-H522 lung; 6.02 µM in the assay on RPMI-8226 leukemia. Also, the TGI was found to be 14.1 µM in the assay with SN12C renal, 13.6 µM with SK-OV-3 ovarian and 7.36 µM in the assay with NCI/ADR-RES ovarian.

On to `O=C(N=Nc1c(O)[nH]c2c(Cl)cc(Cl)cc12)c1ccncc1`, for which the TGI with CCRF-CEM leukemia was above 100 µM; in the assay with PC-3 prostate, 40.2 µM; in the assay with SW-620 colon, above 100 µM; in the assay on SF-295 CNS, above 100 µM; in the assay with UACC-62 melanoma, 33 µM; in the assay on SN12C renal, 64.4 µM. The TGI in the assay with SK-OV-3 ovarian was 69.8 µM; with NCI/ADR-RES ovarian, 69.4 µM.

Regarding `CC(F)(F)c1cc(F)ccc1-c1sc2cc(O)ccc2c1Oc1ccc(/C=C/C(=O)O)cc1`, the GI50 with CCRF-CEM leukemia is 6.68 µM; in the assay with PC-3 prostate, 7700 nM; with SW-620 colon it was 8.56 µM; in the assay on SF-295 CNS, 5.23 µM; in the assay on UACC-62 melanoma, 6.06 µM; in the assay with NCI-H522 lung, 6230 nM. The GI50 with RPMI-8226 leukemia is 8.33 µM; with SN12C renal, 14 µM; in the assay on NCI/ADR-RES ovarian it was 6.66 µM. The total growth inhibition concentration (TGI) in the assay on CCRF-CEM leukemia was 94.4 µM; in the assay on PC-3 prostate, 24.7 µM; in the assay with SW-620 colon, 24.9 µM; in the assay with SF-295 CNS, 20.5 µM; with UACC-62 melanoma, 22.9 µM; with NCI-H522 lung it was 29 µM. Also, the TGI turned out to be 74.8 µM with RPMI-8226 leukemia, 46 µM in the assay on SN12C renal and 40.1 µM in the assay with NCI/ADR-RES ovarian.

Turning to `CC[C@@H](C)[C@H]([C@H](CC(=O)N1CCC[C@@H]1[C@@H](OC)[C@H](C)C(=O)N[C@H](Cc1ccccc1)c1nccs1)OC)N(C)C(=O)[C@H](NC(=O)[C@@H](C(C)C)N(C)C)C(C)C`, the GI50 is 0.000257 µM and 0.000425 µM in the assay on CCRF-CEM leukemia; 0.00777 nM with PC-3 prostate; 0.000425 µM with SW-620 colon; 0.000425 µM in the assay on UACC-62 melanoma; 0.0657 nM with NCI-H522 lung; 0.000425 µM with RPMI-8226 leukemia. For the same compound, the concentration for 50% growth inhibition (GI50) in the assay on SN12C renal is 0.000425 µM; with SK-OV-3 ovarian, 0.079 nM; in the assay on NCI/ADR-RES ovarian it was 0.000317 µM. In addition, the total growth inhibition concentration (TGI) is above 65.8 µM in the assay with PC-3 prostate; 0.000351 µM in the assay on NCI-H522 lung; 4.25 µM and > 14.7 µM in the assay on SN12C renal; below 0.215 µM with NCI/ADR-RES ovarian.

`COc1ccc(NC(=O)Nc2ccc(Nc3nc(C)cc(Nc4ccc(C)cc4)n3)cc2)cc1`: the GI50 in the assay on PC-3 prostate was 1460 nM; with SF-295 CNS, 1.71 µM; with UACC-62 melanoma, 1.41 µM; with NCI-H522 lung it was 1930 nM; in the assay on RPMI-8226 leukemia, 0.71 µM; with SN12C renal, 1.88 µM. In addition, the values for the GI50 in the assay on SK-OV-3 ovarian and with NCI/ADR-RES ovarian were 2460 nM and 1.33 µM, respectively. The total growth inhibition concentration (TGI) in the assay on PC-3 prostate is 2.88 µM; in the assay with SF-295 CNS, 3.18 µM; with UACC-62 melanoma, 3.04 µM; in the assay with NCI-H522 lung, 4.42 µM; in the assay on RPMI-8226 leukemia it was 1.65 µM; in the assay with SN12C renal, 3.86 µM. For the same compound, the TGI worked out at 6.59 µM with SK-OV-3 ovarian and 3.75 µM with NCI/ADR-RES ovarian.
